Numbers after ± are expanded uncertainties.
Tests used:
[1] = 298.15 K, 101.33 kPa, Liquid
[2] = refractive index (Na D-line) (dimensionless); conditions: 298.15 K; 101.33 kPa; Liquid; Standard Abbe refractometry

| SMILES | mass density [1] [kg/m3] | refractive index [2] | mass density ([1]; Pycnometric method) [kg/m3] |
| --- | --- | --- | --- |
| COC(=O)OC [dimethyl carbonate] | 1063.33 ± 1.3 | 1.3672 ± 0.0008 | – |
| CO [methanol] | – | 1.3262 ± 0.0007 | 786.49 ± 0.71 |

Source: the NIST ThermoML archive (doi:10.1016/j.fluid.2006.05.029)
